Source: patent US20240343733A1, “COMPOUNDS FOR TARGETING DEGRADATION OF IRAK4 PROTEINS” (BIOGEN MA INC., priority 2021, published 2024)

biological target: T1, IRAK4 (Homo sapiens, UniProt Q9NWZ3); test: IRAK4 Degradation Assay, HiBiT Method; format: cell-based; details: 293T cells expressing HiBiT-tagged IRAK4, 6 hours
T1 construct: 293Tcells expressing HiBiT-tagged IRAK4 were then added into 384-well plates
T1 sequence (Q9NWZ3 1-460): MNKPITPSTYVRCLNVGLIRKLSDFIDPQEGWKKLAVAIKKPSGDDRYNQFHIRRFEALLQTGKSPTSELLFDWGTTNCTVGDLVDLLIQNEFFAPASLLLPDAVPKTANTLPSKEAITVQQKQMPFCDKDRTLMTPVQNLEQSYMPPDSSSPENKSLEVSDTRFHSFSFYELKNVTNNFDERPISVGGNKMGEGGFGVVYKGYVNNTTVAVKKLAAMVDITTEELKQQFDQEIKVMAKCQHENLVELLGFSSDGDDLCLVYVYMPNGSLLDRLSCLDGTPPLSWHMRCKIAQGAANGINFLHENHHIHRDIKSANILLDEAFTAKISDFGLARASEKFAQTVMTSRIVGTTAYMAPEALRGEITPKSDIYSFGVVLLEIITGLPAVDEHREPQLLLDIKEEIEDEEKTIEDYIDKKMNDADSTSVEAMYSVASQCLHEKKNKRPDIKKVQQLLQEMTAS
Protocol: Assay 1. IRAK4 Degradation Assay, HiBiT Method
Selected compounds were tested in an IRAK4 degradation assay using the HiBiT Method.
Phenol red-free Dulbecco's modified Eagle medium (DMEM) and fetal bovine serum (FBS) were purchased from Gibco (Grand Island, NY, USA). The Nano-Glo® HiBiT Lytic Assay System was purchased from Promega (Madison, WI, USA). Cell culture flasks and 384-well microplates were acquired from VWR (Radnor, PA, USA). The 293Tcell line was engineered by knocking-in a HiBiT fusion tag into the C-terminal of the IRAK4 gene in 293T cells (Synthego, Redwood City, CA, USA).
IRAK4 degradation was measured via the quantification of luminescent signals using the Nano-Glo® HiBiT Lytic Assay kit. Test compounds were added to 384-well plates in duplicate using an 11-point half-log dilution series, with the highest dose set at […]. 293Tcells expressing HiBiT-tagged IRAK4 were then added into 384-well plates at a cell density of 10,000 cells per well. The plates were kept at 37° C. with 5% CO2 for 6 hours. Cells that were treated only with DMSO served as the negative control; wells that contained only assay media served as the background control. After the 6-hour incubation, Nano-Glo® HiBiT Lytic Assay reagents were added to the cells. Luminescence was acquired using an EnVision™ Multilabel Reader (PerkinElmer, Santa Clara, CA, USA).

`CC(C)Oc1cc2nc([C@H]3CC[C@H](CN4CCC(c5ccc(NC6CCC(=O)NC6=O)cc5)C(F)(F)C4)CC3)cn2cc1C(=O)Nc1cccc(C(F)F)n1` (stereo partly drawn) [Example 36, N-[6-(difluoromethyl)-2-pyridyl]-2-[4-[[4-[4-[(2,6-dioxo-3-piperidyl)amino]phenyl]-3,3-difluoro-1-piperidyl]methyl]cyclohexyl]-7-isopropoxy-imidazo[1,2-a]pyridine-6-carboxamide] and `CC(C)Oc1cc2nc([C@H]3CC[C@H](CN4CCC(c5ccc(C6(F)CCC(=O)NC6=O)cc5)CC4)CC3)cn2cc1C(=O)Nc1cccc(C(F)F)n1` (stereo partly drawn) [Example 45, N-[6-(difluoromethyl)-2-pyridyl]-2-[4-[[4-[4-(3-fluoro-2,6-dioxo-3-piperidyl)phenyl]-1-piperidyl]methyl]cyclohexyl]-7-isopropoxy-imidazo[1,2-a]pyridine-6-carboxamide] fall in the same range of DC50: 0.1 to 0.5 µM for the first, 0.1 to 0.5 µM for the second.

`CC(C)Oc1cc2nc([C@H]3CC[C@H](CN4CCC(c5ccc(CN6CCC(=O)NC6=O)cc5)CC4)CC3)cn2cc1C(=O)Nc1cccc(C(F)F)n1` [Example 37, N-[6-(difluoromethyl)-2-pyridyl]-2-[4-[[4-[4-[(2,4-dioxohexahydropyrimidin-1-yl)methyl]phenyl]-1-piperidyl]methyl]cyclohexyl]-7-isopropoxy-imidazo[1,2-a]pyridine-6-carboxamide] and `CC(C)Oc1cc2nc([C@H]3CC[C@H](CN4CCC(c5ccc(N6CCC(=O)NC6=O)cc5)CC4)CC3)cn2cc1C(=O)Nc1cccc(C(F)F)n1` [Example 39, N-[6-(difluoromethyl)-2-pyridyl]-2-[4-[[4-[4-(2,4-dioxohexahydropyrimidin-1-yl)phenyl]-1-piperidyl]methyl]cyclohexyl]-7-isopropoxy-imidazo[1,2-a]pyridine-6-carboxamide] fall in the same range of DC50: 0.01 to 0.1 µM for the first, 0.01 to 0.1 µM for the second.

First: CC(C)Oc1cc2nc([C@H]3CC[C@H](CN4CCC(c5ccc(C6(C)CCC(=O)NC6=O)cc5)CC4)CC3)cn2cc1C(=O)Nc1cccc(C(F)F)n1 (stereo partly drawn) [Example 40, N-[6-(difluoromethyl)-2-pyridyl]-7-isopropoxy-2-[4-[[4-[4-(3-methyl-2,6-dioxo-3-piperidyl)phenyl]-1-piperidyl]methyl]cyclohexyl]imidazo[1,2-a]pyridine-6-carboxamide]
Second: Cc1cn(C2CCC(=O)NC2=O)c2ccc(C3CCN(C[C@H]4CC[C@H](c5cn6cc(C(=O)Nc7cccc(C(F)F)n7)c(OC(C)C)cc6n5)CC4)CC3)cc12 (stereo partly drawn) [Example 44, N-[6-(difluoromethyl)-2-pyridyl]-2-[4-[[4-[1-(2,6-dioxo-3-piperidyl)-3-methyl-indol-5-yl]-1-piperidyl]methyl]cyclohexyl]-7-isopropoxy-imidazo[1,2-a]pyridine-6-carboxamide]
The DC50 of the first is higher: 0.1 to 0.5 µM for the first, 0.01 to 0.1 µM for the second.

First: CC(C)Oc1cc2nc([C@H]3CC[C@H](CN(C)C4CCN(c5ccc(C6CCC(=O)NC6=O)cc5)CC4(F)F)CC3)cn2cc1C(=O)Nc1cccc(C(F)F)n1 (stereo partly drawn) [Example 42, N-[6-(difluoromethyl)-2-pyridyl]-2-[4-[[[1-[4-(2,6-dioxo-3-piperidyl)phenyl]-3,3-difluoro-4-piperidyl]-methyl-amino]methyl]cyclohexyl]-7-isopropoxy-imidazo[1,2-a]pyridine-6-carboxamide]
Second: CC(C)Oc1cc2nc([C@H]3CC[C@H](CN(C)C4CCN(Cc5ccc6c(c5)n(C)c(=O)n6C5CCC(=O)NC5=O)CC4)CC3)cn2cc1C(=O)Nc1cccc(C(F)F)n1 (stereo partly drawn) [Example 43, N-[6-(difluoromethyl)-2-pyridyl]-2-[4-[[[1-[[1-(2,6-dioxo-3-piperidyl)-3-methyl-2-oxo-benzimidazol-5-yl]methyl]-4-piperidyl]-methyl-amino]methyl]cyclohexyl]-7-isopropoxy-imidazo[1,2-a]pyridine-6-carboxamide]
The DC50 of the first is higher: 0.1 to 0.5 µM for the first, 0.01 to 0.1 µM for the second.

First: CC(C)Oc1cc2nc([C@H]3CC[C@H](CN4CC5(CCCN5Cc5ccc(OC6CCC(=O)NC6=O)cc5)C4)CC3)cn2cc1C(=O)Nc1cccc(C(F)F)n1 (stereo partly drawn) [Example 46, N-[6-(difluoromethyl)-2-pyridyl]-2-[4-[[5-[[4-[(2,6-dioxo-3-piperidyl)oxy]phenyl]methyl]-2,5-diazaspiro[3.4]octan-2-yl]methyl]cyclohexyl]-7-isopropoxy-imidazo[1,2-a]pyridine-6-carboxamide]
Second: CC(C)Oc1cc2nn(C3CCN(C(=O)CN4CCC(c5ccc(C6CCC(=O)NC6=O)cc5)CC4)CC3)cc2cc1C(=O)Nc1cccc(C(F)F)n1 (stereo not drawn) [Example 62, N-[6-(difluoromethyl)-2-pyridyl]-2-[1-[2-[4-[4-(2,6-dioxo-3-piperidyl)phenyl]-1-piperidyl]acetyl]-4-piperidyl]-6-isopropoxy-indazole-5-carboxamide]
The DC50 of the first is higher: 0.01 to 0.1 µM for the first, < 0.01 µM for the second.

Compared with `Cc1cnc2c(NC(=O)c3cn4cc([C@H]5CC[C@H](CN6CCC(c7ccc8c(c7)n(C)c(=O)n8C7CCC(=O)NC7=O)CC6)CC5)nc4cc3OC(C)C)cnn2c1` (stereo partly drawn) [Example 51, 2-[4-[[4-[1-(2,6-dioxo-3-piperidyl)-3-methyl-2-oxo-benzimidazol-5-yl]-1-piperidyl]methyl]cyclohexyl]-7-isopropoxy-N-(6-methylpyrazolo[1,5-a]pyrimidin-3-yl)imidazo[1,2-a]pyridine-6-carboxamide], `Cc1cnc2c(NC(=O)c3cn4cc([C@H]5CC[C@H](CN6CCC(c7cc(F)c(C8CCC(=O)NC8=O)cc7F)C(F)(F)C6)CC5)nc4cc3OC(C)C)cnn2c1` (stereo partly drawn) [Example 54, 2-[4-[[4-[4-(2,6-dioxo-3-piperidyl)-2,5-difluoro-phenyl]-3,3-difluoro-1-piperidyl]methyl]cyclohexyl]-7-isopropoxy-N-(6-methylpyrazolo[1,5-a]pyrimidin-3-yl)imidazo[1,2-a]pyridine-6-carboxamide] is higher in DC50: < 0.01 µM for the first, 0.1 to 0.5 µM for the second.

Compared with `CC(C)Oc1cc2nn(C3CCN(C(=O)CN4CCC(c5ccc(C6CCC(=O)NC6=O)cc5)CC4)CC3)cc2cc1C(=O)Nc1cnn2cccnc12` (stereo not drawn) [Example 56, 2-(1-(2-(4-(4-(2,6-dioxopiperidin-3-yl)phenyl)piperidin-1-yl)acetyl)piperidin-4-yl)-6-isopropoxy-N-(pyrazolo[1,5-a]pyrimidin-3-yl)-2H-indazole-5-carboxamide], `CC(C)Oc1cc2nn(C3CCN(C(=O)CN4CCC(c5ccc(NC6CCC(=O)NC6=O)cc5)CC4)CC3)cc2cc1C(=O)Nc1cccc(C(F)(F)F)n1` (stereo not drawn) [Example 60, 2-(1-(2-(4-(4-((2,6-dioxopiperidin-3-yl)amino)phenyl)piperidin-1-yl)acetyl)piperidin-4-yl)-6-isopropoxy-N-(6-(trifluoromethyl)pyridin-2-yl)-2H-indazole-5-carboxamide] is higher in DC50: < 0.01 µM for the first, 0.1 to 0.5 µM for the second.

Compared with `CC(C)Oc1cc2nn(C3CCN(C(=O)CC4(O)CCN(c5cc(F)c(C6CCC(=O)NC6=O)cc5F)CC4)CC3)cc2cc1C(=O)Nc1cnn2cccnc12` (stereo not drawn) [Example 57, 2-(1-(2-(1-(4-(2,6-dioxopiperidin-3-yl)-2,5-difluorophenyl)-4-hydroxypiperidin-4-yl)acetyl)piperidin-4-yl)-6-isopropoxy-N-(pyrazolo[1,5-a]pyrimidin-3-yl)-2H-indazole-5-carboxamide], `CC(C)Oc1cc2nn(C3CCN(C(=O)CC4(O)CCN(c5ccc(NC6CCC(=O)NC6=O)cc5F)CC4)CC3)cc2cc1C(=O)Nc1cccc(C(F)(F)F)n1` (stereo not drawn) [Example 59, 2-[1-[2-[1-[4-[(2,6-dioxo-3-piperidyl)amino]-2-fluoro-phenyl]-4-hydroxy-4-piperidyl]acetyl]-4-piperidyl]-6-isopropoxy-N-[6-(trifluoromethyl)-2-pyridyl]indazole-5-carboxamide] is higher in DC50: < 0.01 µM for the first, 0.01 to 0.1 µM for the second.

First: CC(C)Oc1cc2nn(C3CCN(C(=O)CC4(O)CCN(c5ccc(NC6CCC(=O)NC6=O)cc5)CC4)CC3)cc2cc1C(=O)Nc1cccc(C(F)(F)F)n1 (stereo not drawn) [Example 58, 2-[1-[2-[1-[4-[(2,6-dioxo-3-piperidyl)amino]phenyl]-4-hydroxy-4-piperidyl]acetyl]-4-piperidyl]-6-isopropoxy-N-[6-(trifluoromethyl)-2-pyridyl]indazole-5-carboxamide]
Second: CC(C)Oc1cc2nn(C3CCN(C(=O)CN4CCC(c5ccc(NC6CCC(=O)NC6=O)cc5F)CC4)CC3)cc2cc1C(=O)Nc1cccc(C(F)(F)F)n1 (stereo not drawn) [Example 61, 2-[1-[2-[4-[4-[(2,6-dioxo-3-piperidyl)amino]-2-fluoro-phenyl]-1-piperidyl]acetyl]-4-piperidyl]-6-isopropoxy-N-[6-(trifluoromethyl)-2-pyridyl]indazole-5-carboxamide]
The DC50 of the first is lower: 0.01 to 0.1 µM for the first, 0.1 to 0.5 µM for the second.
